The test system of the series is Normal human articular chondrocytes (NHAC's). Put plainly: Aggrecan induction, Alcian blue stain assay. The format is cell-based. The following applies: primary human chondrocytes 12 days post infection, FIG. 5. How it is done:
A second assay to screen for chondrocyte anabolic factors is developed by monitoring the levels of aggrecan, another major constituent of cartilage. In this assay, glycosaminoglycans on aggrecan are stained by Alcian blue. NHACs are seeded in 384 well plates and 1 day after plating infected with individual Ad-siRNA from the SilenceSelect™ collection. […] Using Ad-BMP2 as a positive control, we confirm in a series of experiments that several parameters optimized for the ColII cELISA assay are also applicable for the Alcian blue stain assay for aggrecan. These parameters include cell seeding density, MOIs of control viruses, duration of infection, and the day of readout.
NHAC's are seeded on day 0 at 1500 cells/well of a 384 well black-plate with clear bottom in 60 μl of DMEM/F12, containing 10% FBS-HI and Pen/Strep and infected the next day with 2.5 μl of Ad-BMP2 or Ad-eGFP; at an MOI of 2000. After 7 days, 10 μl of a 50 μg/ml 2-Phospho-L-ascorbic acid in assay culture medium is added to each well. […] After replacing 50% ethanol/3% acetic acid with 70% ethanol/3% acetic acid, each individual well is photographed with a SONY CCD camera, images are analyzed using a Galapagos Alcian blue quantification algorithm based on the separation of the blue signal through a color threshold procedure after a noise reduction filter. […]

In the case of “GGTGTATGGGCTCATGTAC (adenoviral siRNA, target sequence only, chemistry not fully specified) [Ad-siRNA targeting FZD1]”, the “aggrecan levels (Alcian blue staining)” value is recorded as “does not seem to induce Alcian blue staining”.

The values are drawn from US20070004658A1, “Method and means for treatment of osteoarthritis” (priority 2004, published 2007).
